Measurements published in paper PMC3523469 (Investigational New Drugs, 2012).
Read-outs that look alike come from different tables or passages of the source.

Assay type: in vivo, Japanese patients
Conditions: 15 mg QD (n = 3)

SMILES: COc1cc2ncnc(Nc3ccc(F)c(Cl)c3)c2cc1NC(=O)/C=C/CN1CCCCC1 [dacomitinib, Dacomitinib]
- Alanine aminotransferase increased, number of patients with treatment-related AE (All): 0
- Aspartate aminotransferase increased, number of patients with treatment-related AE (All): 0
- Blood bilirubin increased, number of patients with treatment-related AE (All): 0
- Cheilitis, number of patients with treatment-related AE (All): 2
- Conjunctivitis, number of patients with treatment-related AE (All): 0
- Decreased appetite, number of patients with treatment-related AE (All): 0
- Diarrhea, number of patients with treatment-related AE (All): 2
- Dry skin, number of patients with treatment-related AE (All): 2
- ECG QT prolonged, number of patients with treatment-related AE (All): 2
- Edema, number of patients with treatment-related AE (All): 0
- Fatigue, number of patients with treatment-related AE (All): 0
- Hematuria, number of patients with treatment-related AE (All): 0
- Hypertrichosis, number of patients with treatment-related AE (All): 0
- Leukopenia, number of patients with treatment-related AE (All): 0
- Nausea, number of patients with treatment-related AE (All): 0
- Palmar–plantar erythrodysesthesia, number of patients with treatment-related AE (All): 1
- Paronychia, number of patients with treatment-related AE (All): 1
- Proteinuria, number of patients with treatment-related AE (All): 0
- Rash, number of patients with treatment-related AE (All): 3
- Skin fissures, number of patients with treatment-related AE (All): 0
- Stomatitis, number of patients with treatment-related AE (All): 1
- Weight decreased, number of patients with treatment-related AE (All): 0
- Alanine aminotransferase increased, number of patients with treatment-related AE (G1): 0
- Aspartate aminotransferase increased, number of patients with treatment-related AE (G1): 0
- Blood bilirubin increased, number of patients with treatment-related AE (G1): 0
- Cheilitis, number of patients with treatment-related AE (G1): 2
- Conjunctivitis, number of patients with treatment-related AE (G1): 0
- Decreased appetite, number of patients with treatment-related AE (G1): 0
- Diarrhea, number of patients with treatment-related AE (G1): 2
- Dry skin, number of patients with treatment-related AE (G1): 1
- ECG QT prolonged, number of patients with treatment-related AE (G1): 1
- Edema, number of patients with treatment-related AE (G1): 0
- Fatigue, number of patients with treatment-related AE (G1): 0
- Hematuria, number of patients with treatment-related AE (G1): 0
- Hypertrichosis, number of patients with treatment-related AE (G1): 0
- Leukopenia, number of patients with treatment-related AE (G1): 0
- Nausea, number of patients with treatment-related AE (G1): 0
- Palmar–plantar erythrodysesthesia, number of patients with treatment-related AE (G1): 1
- Paronychia, number of patients with treatment-related AE (G1): 0
- Proteinuria, number of patients with treatment-related AE (G1): 0
- Rash, number of patients with treatment-related AE (G1): 2
- Skin fissures, number of patients with treatment-related AE (G1): 0
- Stomatitis, number of patients with treatment-related AE (G1): 1
- Weight decreased, number of patients with treatment-related AE (G1): 0
- Alanine aminotransferase increased, number of patients with treatment-related AE (G2): 0
- Aspartate aminotransferase increased, number of patients with treatment-related AE (G2): 0
- Blood bilirubin increased, number of patients with treatment-related AE (G2): 0
- Cheilitis, number of patients with treatment-related AE (G2): 0
- Conjunctivitis, number of patients with treatment-related AE (G2): 0
- Decreased appetite, number of patients with treatment-related AE (G2): 0
- Diarrhea, number of patients with treatment-related AE (G2): 0
- Dry skin, number of patients with treatment-related AE (G2): 1
- ECG QT prolonged, number of patients with treatment-related AE (G2): 1
- Edema, number of patients with treatment-related AE (G2): 0
- Fatigue, number of patients with treatment-related AE (G2): 0
- Hematuria, number of patients with treatment-related AE (G2): 0
- Hypertrichosis, number of patients with treatment-related AE (G2): 0
- Leukopenia, number of patients with treatment-related AE (G2): 0
- Nausea, number of patients with treatment-related AE (G2): 0
- Palmar–plantar erythrodysesthesia, number of patients with treatment-related AE (G2): 0
- Paronychia, number of patients with treatment-related AE (G2): 1
- Proteinuria, number of patients with treatment-related AE (G2): 0
- Rash, number of patients with treatment-related AE (G2): 1
- Skin fissures, number of patients with treatment-related AE (G2): 0
- Stomatitis, number of patients with treatment-related AE (G2): 0
- Weight decreased, number of patients with treatment-related AE (G2): 0
- Alanine aminotransferase increased, number of patients with treatment-related AE (G3): 0
- Aspartate aminotransferase increased, number of patients with treatment-related AE (G3): 0
- Blood bilirubin increased, number of patients with treatment-related AE (G3): 0
- Cheilitis, number of patients with treatment-related AE (G3): 0
- Conjunctivitis, number of patients with treatment-related AE (G3): 0
- Decreased appetite, number of patients with treatment-related AE (G3): 0
- Diarrhea, number of patients with treatment-related AE (G3): 0
- Dry skin, number of patients with treatment-related AE (G3): 0
- ECG QT prolonged, number of patients with treatment-related AE (G3): 0
- Edema, number of patients with treatment-related AE (G3): 0
- Fatigue, number of patients with treatment-related AE (G3): 0
- Hematuria, number of patients with treatment-related AE (G3): 0
- Hypertrichosis, number of patients with treatment-related AE (G3): 0
- Leukopenia, number of patients with treatment-related AE (G3): 0
